Patent publication US20260215431A1, “AN HERBICIDAL COMBINATION, COMPOSITION AND METHOD OF CONTROLLING WEEDS USING THE SAME” (priority 2023, published 2026)

Tests used:
[1] = tested on: Viola arvensis, Bromus spp., Lolium spp., Agropyron repens and Urtica urens; conditions: reported by Hoechst et al., 1991; cited from earlier work
[2] = tested on: Euphorbia heterophylla; assay: Greenhouse post-emergence herbicidal efficacy on Euphorbia heterophylla; type: in vivo
Protocol: (§1) The expected efficacy of a combination of L-glufosinate ammonium and the other herbicides was calculated using the well-established Colby method. Any difference between the observed and “expected” efficacy could be attributed to synergy between the two compounds.
(§2) In the Colby method, the expected (or predicted) response of a combination of herbicides is calculated by taking the product of the observed response for each individual component of the combination when applied alone, divided by 100, and subtracting this value from the sum of the observed response for each component when applied alone. An unexpected enhancement in efficacy of the combination is then determined by comparing the observed response of the combination to the expected (or predicted) response as calculated from the observed response of each individual component alone. If the observed response of the combination is greater than the expected (or predicted) response, or stated conversely, if the difference between the observed and expected response is greater than zero, then the combination is said to be synergistic or unexpectedly effective (Colby, S. R., Weeds, 1967(15), p. 20-22). The Colby method requires only a single dose of each herbicide applied alone and the mixture of both doses. The formula used to calculate the expected efficacy (EE) which was compared with the observed efficacy (OE) to determine the efficacy of the present disclosure is explained hereinbelow:
(§3) The expected efficacy for a combination of two active ingredients is as follows:
(§4) The expected efficacy for a combination of three active ingredients is as follows:
(§5) [formula] • wherein, • A=Observed efficacy of active ingredient A at the same concentration as used in the mixture. • B=Observed efficacy of the active ingredient B at the same concentration as used in the mixture. • C=Observed efficacy of the active ingredient C at the same concentration as used in the mixture.
(§6) Greenhouse trials were conducted to evaluate the efficacy of the combination of L-glufosinate ammonium and metribuzin, L-glufosinate ammonium and metribuzin+sulfentrazone and L-glufosinate ammonium and metribuzin+oxyfluorfen—on weeds Borreria verticillate, Euphorbia heterophylla.
(§7) The soil used was sandy clay loam—sand: 68.0%; silt: 8.0%; clay: 24.0%.
(§8) All treatments were in 4 replications per treatment with a spray volume of 150 L/ha.
The percentage efficacy was calculated at 7, 14 and 21 DAA. The target weed was Euphorbia heterophylla, and the concentration of the herbicide and the results are recorded in Table 2.
The percentage efficacy was calculated at 14, 21 and 28 DAA. The target weed was Euphorbia heterophylla, and the concentration of the herbicides and the results are recorded in Table 4.
The percentage efficacy was calculated at 14 and 21 DAA. The target weed was Euphorbia heterophylla, and the concentration of the herbicides and the results are recorded in Table 6.

[3] = tested on: Borreria verticillata; assay: Greenhouse post-emergence herbicidal efficacy on Borreria verticillata; type: in vivo; conditions: 14 DAA
Protocol: as §1, §2, §3, §4, §5, §6, §7, §8
The percentage efficacy was calculated at 14 days after application (DAA). The target weed was Borreria verticillata, and the concentration of the herbicide and the results are recorded in Table 1.
The percentage efficacy was calculated at 14 DAA. The target weed was Borreria verticillata, and the concentration of the herbicides and the results are recorded in the Table 3.
The percentage efficacy was calculated at 14 DAA. The target weed was Borreria verticillata, and the concentration of the herbicides and the results are recorded in Table 5.

In the case of `CP(=O)(O)CCC(N)C(=O)O` (racemic) [glufosinate, DL-homoalanin-4-yl(methyl)phosphinic acid], the “Control of weed species by glufosinate” value [1] is given as “either not combated, or only weakly combated”.

For `CP(=O)(O)CC[C@H](N)C(=O)O.N` [L-glufosinate ammonium, ammonium (2S)-2-amino-4-(methylphosphinato)butyric acid], the “Observed efficacy (%) of L-glufosinate ammonium (150 g a.i./ha)” value (“Observed efficacy (%) … (150 g a.i./ha)” below) ([2]; Table 2, 7 DAA) was 95%, the “Observed efficacy (%) … (150 g a.i./ha)” value ([2]; Table 2, 14 DAA) was 85% and the “Observed efficacy (%) … (150 g a.i./ha)” value ([2]; Table 2, 21 DAA) was 70%. For the same compound, the “Observed efficacy (%) … (150 g a.i./ha)” value ([2]; Table 4, 14 DAA) was 88%, the “Observed efficacy (%) … (150 g a.i./ha)” value ([2]; Table 4, 21 DAA) was 85% and the “Observed efficacy (%) … (150 g a.i./ha)” value ([2]; Table 4, 28 DAA) was 85%. The “Observed efficacy (%) … (150 g a.i./ha)” value ([2]; Table 6, 14 DAA) was 85%, the “Observed efficacy (%) … (150 g a.i./ha)” value ([2]; Table 6, 21 DAA) was 70% and the “Observed efficacy (%) … (150 g a.i./ha)” value ([3]; Table 1) was 80%. For the same compound, the “Observed efficacy (%) … (150 g a.i./ha)” value ([3]; Table 3) was 80% and the “Observed efficacy (%) … (150 g a.i./ha)” value ([3]; Table 5) was 80%.

For `CSc1nnc(C(C)(C)C)c(=O)n1N` [Metribuzin], the “Observed efficacy (%) of metribuzin (252 g a.i./ha)” value (shortened to “Observed efficacy (%) of metribuzin”) ([2]; Table 2, 7 DAA) was 35%, the “Observed efficacy (%) of metribuzin” value ([2]; Table 2, 14 DAA) was 25% and the “Observed efficacy (%) of metribuzin” value ([2]; Table 2, 21 DAA) was 15%. For the same compound, the “Observed efficacy (%) of metribuzin” value ([2]; Table 4, 14 DAA) was 30%, the “Observed efficacy (%) of metribuzin” value ([2]; Table 4, 21 DAA) was 20% and the “Observed efficacy (%) of metribuzin” value ([2]; Table 4, 28 DAA) was 10%. For the same compound, the “Observed efficacy (%) of metribuzin” value ([2]; Table 6, 14 DAA) was 85%, the “Observed efficacy (%) of metribuzin” value ([2]; Table 6, 21 DAA) was 85% and the “Observed efficacy (%) of metribuzin” value ([3]; Table 1) was 30%. The “Observed efficacy (%) of metribuzin” value ([3]; Table 3) was 30% and the “Observed efficacy (%) of metribuzin” value ([3]; Table 5) was 55%.

In the case of `CCOc1cc(Oc2ccc(C(F)(F)F)cc2Cl)ccc1[N+](=O)[O-]` [Oxyfluorfen], the “Observed efficacy (%) of oxyfluorfen (430 g a.i./ha)” value (“Observed efficacy (%) of oxyfluorfen” for short) ([2]; Table 4, 14 DAA) is reported as 65%, the “Observed efficacy (%) of oxyfluorfen” value ([2]; Table 4, 21 DAA) is reported as 50% and the “Observed efficacy (%) of oxyfluorfen” value ([2]; Table 4, 28 DAA) is reported as 40%. The “Observed efficacy (%) of oxyfluorfen” value ([3]; Table 3, 430 g a.i./ha) was 70%.

In the case of `Cc1nn(-c2cc(NS(C)(=O)=O)c(Cl)cc2Cl)c(=O)n1C(F)F` [Sulfentrazone], the “Observed efficacy (%) of sulfentrazone (300 g a.i./ha)” value ([2]; Table 6, 14 DAA) is reported as 25%, the “Observed efficacy (%) of sulfentrazone (300 g a.i./ha)” value ([2]; Table 6, 21 DAA) is reported as 15% and the “Observed efficacy (%) of sulfentrazone (300 g a.i./ha)” value ([3]; Table 5, 300 g a.i./ha) is reported as 30%.
